# Patent publication US8952024B2, “Herbicidal pyrimidone derivatives” (E I du Pont de Nemours and Company, priority 2009, dated 2015)
# Experiments:
# Type in all cases: in vivo
# [1] = system: Italian ryegrass (Lolium multiflorum); assay: Test B pre-/postemergence plant response; settings: for Ryegrass, Italian plant response rating (0 to 100 scale): 62 g ai/ha, postemergence, 0 is no effect, 100 is complete control; for Plant response rating, Ryegrass, Italian: Postemergence
# Outline: (§1)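 Seeds were sown in loam soil/sand blend and treated preemergence with compound in non-phytotoxic solvent mixture containing surfactant; postemergence sprays, same formulation, went onto plants 2 to 18 cm (1- to 4-leaf stage) in peat-based planting medium. Greenhouse 13 to 15 days, then visual rating versus untreated controls, 0 (no effect) to 100 (complete control).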
# [2] = system: Surinam grass (Brachiaria decumbens); assay: Test B pre-/postemergence plant response; settings: for Surinam Grass plant response rating (0 to 100 scale): 62 g ai/ha, postemergence, 0 is no effect, 100 is complete control; for Plant response rating, Surinam Grass: Postemergence
# Outline: as §1
# [3] = system: bermudagrass (Cynodon dactylon); assay: Test B pre-/postemergence plant response; settings: for Bermudagrass plant response rating (0 to 100 scale): 62 g ai/ha, postemergence, 0 is no effect, 100 is complete control; for Plant response rating, Bermudagrass: Postemergence
# Outline: as §1
# [4] = system: blackgrass (Alopecurus myosuroides); assay: Test B pre-/postemergence plant response; settings: for Blackgrass plant response rating (0 to 100 scale): 62 g ai/ha, postemergence, 0 is no effect, 100 is complete control; for Plant response rating, Blackgrass: Postemergence
# Outline: as §1
# [5] = system: cocklebur (Xanthium strumarium); assay: Test B pre-/postemergence plant response; settings: for Cocklebur plant response rating (0 to 100 scale): 62 g ai/ha, postemergence, 0 is no effect, 100 is complete control; for Plant response rating, Cocklebur: Postemergence
# Outline: as §1
# corn (Zea mays) = assay: Test B pre-/postemergence plant response; settings: for Corn plant response rating (0 to 100 scale): 62 g ai/ha, postemergence, 0 is no effect, 100 is complete control; for Plant response rating, Corn: Postemergence
# Outline: as §1
# [6] = system: morningglory (Ipomoea coccinea); assay: Test B pre-/postemergence plant response; settings: for Morningglory plant response rating (0 to 100 scale): 62 g ai/ha, postemergence, 0 is no effect, 100 is complete control; for Plant response rating, Morningglory: Postemergence
# Outline: as §1
# [7] = system: ragweed (common ragweed, Ambrosia elatior); assay: Test B pre-/postemergence plant response; settings: for Ragweed plant response rating (0 to 100 scale): 62 g ai/ha, postemergence, 0 is no effect, 100 is complete control; for Plant response rating, Ragweed: Postemergence
# Outline: as §1
# soybean (Glycine max) = assay: Test B pre-/postemergence plant response; settings: for Soybean plant response rating (0 to 100 scale): 62 g ai/ha, postemergence, 0 is no effect, 100 is complete control; for Plant response rating, Soybean: Postemergence
# Outline: as §1
# [8] = system: barnyardgrass (Echinochloa crus-galli); assay: Test B flooded paddy test; settings: for Plant response rating, Flood, Barnyardgrass: 250 g ai/ha, flooded paddy test, visual rating on 0 to 100 scale (0 no effect, 100 complete control) after 13 to 15 days; for Plant response rating, Barnyardgrass: Flood (flooded paddy test), 13 to 15 days; for Barnyardgrass plant response rating: Flood, 31 g ai/ha, scale 0 to 100 (0 no effect, 100 complete control)
# Outline: (§2)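 Visual scores run from 0 (no effect) to 100 (complete control), assigned by comparison with controls 13 to 15 days after treatment. Test compounds went straight into water standing 3 cm above the soil, around plants at the 2-leaf stage kept in a greenhouse.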
# [9] = system: ducksalad (Heteranthera limosa); assay: Test B flooded paddy test; settings: for Plant response rating, Flood, Ducksalad: 250 g ai/ha, flooded paddy test, visual rating on 0 to 100 scale (0 no effect, 100 complete control) after 13 to 15 days; for Plant response rating, Ducksalad: Flood (flooded paddy test), 13 to 15 days; for Ducksalad plant response rating: Flood, 31 g ai/ha, scale 0 to 100 (0 no effect, 100 complete control)
# Outline: as §2
# rice (Oryza sativa) = assay: Test B flooded paddy test; settings: for Plant response rating, Flood, Rice: 250 g ai/ha, flooded paddy test, visual rating on 0 to 100 scale (0 no effect, 100 complete control) after 13 to 15 days; for Plant response rating, Rice: Flood (flooded paddy test), 13 to 15 days; for Rice plant response rating: Flood, 31 g ai/ha, scale 0 to 100 (0 no effect, 100 complete control)
# Outline: as §2
# [10] = system: umbrella sedge (Cyperus difformis); assay: Test B flooded paddy test; settings: for Plant response rating, Flood, Sedge, Umbrella: 250 g ai/ha, flooded paddy test, visual rating on 0 to 100 scale (0 no effect, 100 complete control) after 13 to 15 days; for Plant response rating, Sedge, Umbrella: Flood (flooded paddy test), 13 to 15 days; for Sedge, Umbrella plant response rating: Flood, 31 g ai/ha, scale 0 to 100 (0 no effect, 100 complete control)
# Outline: as §2
# [11] = 31 g ai/ha, 0 to 100 scale (0 no effect, 100 complete control)
# [12] = 125 g ai/ha, scale 0 to 100 (0 no effect, 100 complete control)
# [13] = 250 g ai/ha, scale 0 to 100 (0 no effect, 100 complete control), 13 to 15 days
# [14] = 62 g ai/ha, scale of 0 to 100 where 0 is no effect and 100 is complete control
# [15] = 125 g ai/ha, scale 0 to 100, 0 is no effect, 100 is complete control
smiles,measurement,setting,value
COCCn1c(-c2cccc(Cl)c2)ncc(C(=O)C2=C(O)CCCC2=O)c1=O [Compound 147],"Ryegrass, Italian plant response rating (0 to 100 scale)",[1]; 13 to 15 days,5
same,"Plant response rating, Ryegrass, Italian",[1]; [11],5
same,"Plant response rating, Ryegrass, Italian",[1]; [12],30
same,"Plant response rating, Ryegrass, Italian",[1]; [13],40
same,Surinam Grass plant response rating (0 to 100 scale),[2]; 13 to 15 days,65
same,"Plant response rating, Surinam Grass",[2]; [11],50
same,"Plant response rating, Surinam Grass",[2]; [12],75
same,"Plant response rating, Surinam Grass",[2]; [13],75
same,Bermudagrass plant response rating (0 to 100 scale),[3]; 13 to 15 days,90
same,"Plant response rating, Bermudagrass",[3]; [11],75
same,"Plant response rating, Bermudagrass",[3]; [12],95
same,"Plant response rating, Bermudagrass",[3]; [13],98
same,Blackgrass plant response rating (0 to 100 scale),[4]; 13 to 15 days,40
same,"Plant response rating, Blackgrass",[4]; [11],10
same,"Plant response rating, Blackgrass",[4]; [12],45
same,"Plant response rating, Blackgrass",[4]; [13],55
same,Cocklebur plant response rating (0 to 100 scale),[5]; 13 to 15 days,75
same,"Plant response rating, Cocklebur",[5]; [11],50
same,"Plant response rating, Cocklebur",[5]; [12],90
same,"Plant response rating, Cocklebur",[5]; [13],100
same,Corn plant response rating (0 to 100 scale),corn (Zea mays); 13 to 15 days,15
same,"Plant response rating, Corn",corn (Zea mays); [11],0
same,"Plant response rating, Corn",corn (Zea mays); [12],25
same,"Plant response rating, Corn",corn (Zea mays); [13],40
same,Morningglory plant response rating (0 to 100 scale),[6]; 13 to 15 days,50
same,"Plant response rating, Morningglory",[6]; [11],50
same,"Plant response rating, Morningglory",[6]; [12],65
same,"Plant response rating, Morningglory",[6]; [13],100
same,Ragweed plant response rating (0 to 100 scale),[7]; 13 to 15 days,75
same,"Plant response rating, Ragweed",[7]; [11],20
same,"Plant response rating, Ragweed",[7]; [12],90
same,"Plant response rating, Ragweed",[7]; [13],98
same,Soybean plant response rating (0 to 100 scale),soybean (Glycine max); 13 to 15 days,60
same,"Plant response rating, Soybean",soybean (Glycine max); [11],15
same,"Plant response rating, Soybean",soybean (Glycine max); [12],65
same,"Plant response rating, Soybean",soybean (Glycine max); [13],85
same,"Plant response rating, Flood, Barnyardgrass",[8],75
same,"Plant response rating, Barnyardgrass",[8]; [14],10
same,"Plant response rating, Barnyardgrass",[8]; [15],45
same,Barnyardgrass plant response rating,[8],0
same,"Plant response rating, Flood, Ducksalad",[9],100
same,"Plant response rating, Ducksalad",[9]; [14],60
same,"Plant response rating, Ducksalad",[9]; [15],80
same,Ducksalad plant response rating,[9],60
same,"Plant response rating, Flood, Rice",rice (Oryza sativa),15
same,"Plant response rating, Rice",rice (Oryza sativa); [14],0
same,"Plant response rating, Rice",rice (Oryza sativa); [15],10
same,Rice plant response rating,rice (Oryza sativa),0
same,"Plant response rating, Flood, Sedge, Umbrella",[10],80
same,"Plant response rating, Sedge, Umbrella",[10]; [14],40
same,"Plant response rating, Sedge, Umbrella",[10]; [15],40
same,"Sedge, Umbrella plant response rating",[10],0
CCCn1c(-c2cc(F)cc(F)c2)ncc(C(=O)C2=C(O)CCCC2=O)c1=O [Compound 152],"Ryegrass, Italian plant response rating (0 to 100 scale)",[1]; 13 to 15 days,30
same,"Plant response rating, Ryegrass, Italian",[1]; [11],5
same,"Plant response rating, Ryegrass, Italian",[1]; [12],45
same,"Plant response rating, Ryegrass, Italian",[1]; [13],80
same,Surinam Grass plant response rating (0 to 100 scale),[2]; 13 to 15 days,85
same,"Plant response rating, Surinam Grass",[2]; [11],75
same,"Plant response rating, Surinam Grass",[2]; [12],90
same,"Plant response rating, Surinam Grass",[2]; [13],95
same,Bermudagrass plant response rating (0 to 100 scale),[3]; 13 to 15 days,95
same,"Plant response rating, Bermudagrass",[3]; [11],95
same,"Plant response rating, Bermudagrass",[3]; [12],98
same,"Plant response rating, Bermudagrass",[3]; [13],98
same,Blackgrass plant response rating (0 to 100 scale),[4]; 13 to 15 days,35
same,"Plant response rating, Blackgrass",[4]; [11],20
same,"Plant response rating, Blackgrass",[4]; [12],55
same,"Plant response rating, Blackgrass",[4]; [13],70
same,Cocklebur plant response rating (0 to 100 scale),[5]; 13 to 15 days,80
same,"Plant response rating, Cocklebur",[5]; [11],70
same,"Plant response rating, Cocklebur",[5]; [12],98
same,"Plant response rating, Cocklebur",[5]; [13],100
same,Corn plant response rating (0 to 100 scale),corn (Zea mays); 13 to 15 days,45
same,"Plant response rating, Corn",corn (Zea mays); [11],25
same,"Plant response rating, Corn",corn (Zea mays); [12],65
same,"Plant response rating, Corn",corn (Zea mays); [13],80
same,Morningglory plant response rating (0 to 100 scale),[6]; 13 to 15 days,75
same,"Plant response rating, Morningglory",[6]; [11],45
same,"Plant response rating, Morningglory",[6]; [12],75
same,"Plant response rating, Morningglory",[6]; [13],95
same,Ragweed plant response rating (0 to 100 scale),[7]; 13 to 15 days,80
same,"Plant response rating, Ragweed",[7]; [11],60
same,"Plant response rating, Ragweed",[7]; [12],95
same,"Plant response rating, Ragweed",[7]; [13],98
same,Soybean plant response rating (0 to 100 scale),soybean (Glycine max); 13 to 15 days,70
same,"Plant response rating, Soybean",soybean (Glycine max); [11],70
same,"Plant response rating, Soybean",soybean (Glycine max); [12],98
same,"Plant response rating, Soybean",soybean (Glycine max); [13],100
same,"Plant response rating, Flood, Barnyardgrass",[8],75
same,"Plant response rating, Barnyardgrass",[8]; [14],25
same,"Plant response rating, Barnyardgrass",[8]; [15],50
same,Barnyardgrass plant response rating,[8],15
same,"Plant response rating, Flood, Ducksalad",[9],100
same,"Plant response rating, Ducksalad",[9]; [14],90
same,"Plant response rating, Ducksalad",[9]; [15],100
same,Ducksalad plant response rating,[9],0
same,"Plant response rating, Flood, Rice",rice (Oryza sativa),60
same,"Plant response rating, Rice",rice (Oryza sativa); [14],20
same,"Plant response rating, Rice",rice (Oryza sativa); [15],30
same,Rice plant response rating,rice (Oryza sativa),20
same,"Plant response rating, Flood, Sedge, Umbrella",[10],100
same,"Plant response rating, Sedge, Umbrella",[10]; [14],0
same,"Plant response rating, Sedge, Umbrella",[10]; [15],85
same,"Sedge, Umbrella plant response rating",[10],0
